Experimental data as given in ChEMBL document CHEMBL3887009, “Substituted benzoxazoles” (2016).
pIC50: −log10 of the molar value.

Experiment: Inhibition Assay: To determine the thrombin inhibition of the substances listed above, a biochemical test system is constructed in which the conversion of a thrombin substrate is used for determining the enzymatic activity of human thrombin. Here, thrombin cleaves aminomethylcoumarin, which is measured fluorescently, from the peptic substrate. The determinations are carried out in microtitre plates.Substances to be tested are dissolved in various concentrations in dimethyl sulphoxide and incubated for 15 min with human thrombin (0.06 nmol/l dissolved in 50 mmol/l of Tris buffer [C,C,C-tris(hydroxymethyl)aminomethane], 100 mmol/l of sodium chloride, 0.1% BSA [bovine serum albumin], pH 7.4) at 22° C. The substrate (5 umol/l Boc-Asp(OBzl)-Pro-Arg-AMC from Bachem) is then added. After 30 min of incubation, the sample is excited at a wavelength of 360 nm and the emission is measured at 460 nm. The measured emissions of the test batches with test substance are compared to the control batches without test substance (only dimethyl sulphoxide instead of test substance in dimethyl sulphoxide) and the IC50 values are calculated from the concentration/activity relationships.

pIC50: 6.89
Compound: COc1cc(C(=O)N2CC(C)(CCO)OC[C@H]2C)cc2nc(N[C@H](CF)c3cccc(Cl)c3)oc12 (stereo partly specified)
